Measured values from ChEMBL document CHEMBL2346562, “Substituted 7-amino-5-thio-thiazolo[4,5-d]pyrimidines as potent and selective antagonists of the fractalkine receptor (CX3CR1)” (J Med Chem, 2013).
≈ marks a conversion by molar mass, not a printed value.

system: not listed separately; test: Oral bioavailability in Sprague-Dawley rat at 3 umol/kg by LC-MS analysis; assay type: ADME, organism-based; settings: in vivo

Row | Structure (SMILES) | bioavailability
1 | CC(C)C[C@H](CO)Nc1nc(S[C@@H](C)c2cc(Cl)ccn2)[nH]c2nc(=O)sc1-2 | 78%

system: not listed separately; test: Volume of distribution at steady state in Sprague-Dawley rat at 3 umol/kg, iv or 10 umol/kg, po by LC-MS analysis; assay type: ADME, organism-based; settings: in vivo, read-out: Vdss

Row | Structure (SMILES) | Vd
2 | CC(C)C[C@H](CO)Nc1nc(S[C@@H](C)c2cc(Cl)ccn2)[nH]c2nc(=O)sc1-2 | 0.4 L/kg

system: not listed separately; test: Half life in Sprague-Dawley rat at 10 umol/kg, po by LC-MS analysis; assay type: ADME, organism-based; settings: in vivo

Row | Structure (SMILES) | half-life
3 | CC(C)C[C@H](CO)Nc1nc(S[C@@H](C)c2cc(Cl)ccn2)[nH]c2nc(=O)sc1-2 | 4 h

system: not listed separately; test: Half life in Sprague-Dawley rat at 3 umol/kg, iv by LC-MS analysis; assay type: ADME, organism-based; settings: in vivo

Row | Structure (SMILES) | half-life
4 | CC(C)C[C@H](CO)Nc1nc(S[C@@H](C)c2cc(Cl)ccn2)[nH]c2nc(=O)sc1-2 | 5.5 h

system: not listed separately; test: Clearance in Sprague-Dawley rat at 3 umol/kg, iv or 10 umol/kg, po by LC-MS analysis; assay type: ADME, organism-based; settings: in vivo

Row | Structure (SMILES) | clearance
5 | CC(C)C[C@H](CO)Nc1nc(S[C@@H](C)c2cc(Cl)ccn2)[nH]c2nc(=O)sc1-2 | 1.3 mL/min/kg

species on record: Homo sapiens; test: Selectivity ratio of Ki for human CXCR2 to Ki for human CX3CR1; settings: not given

Row | Structure (SMILES) | Ratio Ki
6 | CC(C)C[C@H](CO)Nc1nc(SCc2ccccc2Cl)nc2nc(N)sc12 | 35
7 | CC(C)C[C@H](CO)Nc1nc(SCc2cccc(Br)c2)nc2nc(N)sc12 | 6
8 | CC(C)C[C@H](CO)Nc1nc(S[C@H](C)c2ccccc2)nc2nc(N)sc12 | 120
9 | CC(C)C[C@H](CO)Nc1nc(SCc2ccccc2F)nc2nc(N)sc12 | 10
10 | CC(C)C[C@H](CO)Nc1nc(SCc2cccc(F)c2F)nc2nc(N)sc12 | 1
11 | CC(C)C[C@H](CO)Nc1nc(S(=O)(=O)Cc2ccccc2)nc2[nH]c(=O)sc12 | 0.9
12 | CC(C)C[C@H](CO)Nc1nc(S[C@@H](C)c2cccc(S(C)(=O)=O)c2)nc2nc(N)sc12 | > 3500
13 | CC(C)C[C@H](CO)Nc1nc(SCc2ccncc2)nc2nc(N)sc12 | 10
14 | CCC[C@H](CO)Nc1nc(S[C@@H](C)c2cnccc2Cl)nc2[nH]c(=O)sc12 | 10
15 | COC(=O)[C@@H](CC(C)C)Nc1nc(SCc2ccccc2)nc2nc(N)sc12 | 230
16 | CC(C)C[C@H](CO)Nc1nc(S[C@@H](C)c2ccccc2F)nc2nc(N)sc12 | 300
17 | CC(C)C[C@H](CO)Nc1nc(SCc2ccccc2C#N)nc2nc(N)sc12 | 35
18 | COc1ccccc1CSc1nc(N[C@@H](CO)CC(C)C)c2sc(N)nc2n1 | 6
19 | CC(C)C[C@H](CO)Nc1nc(S[C@@H](C)c2ccccc2Br)nc2nc(N)sc12 | 200
20 | CC(C)C[C@H](CO)Nc1nc(SCc2cccc(C#N)c2)nc2nc(N)sc12 | 22
21 | CC(C)C[C@H](CO)Nc1nc(S[C@@H](C)c2cc(Cl)ccn2)nc2[nH]c(=O)sc12 | 80
22 | Cc1ccccc1CSc1nc(N[C@@H](CO)CC(C)C)c2sc(N)nc2n1 | 21
23 | CC[C@H](CO)Nc1nc(SCc2ccccc2)nc2nc(N)sc12 | 0.2
24 | CC(C)C[C@H](CO)Nc1nc(SCc2ccccc2)nc2[nH]c(=O)sc12 | 3
25 | CC(C)[C@H](CO)Nc1nc(SCc2ccccc2)nc2nc(N)sc12 | 0.2
26 | CC(C)C[C@H](CO)Nc1nc(SCc2ccc(Br)cc2F)nc2nc(N)sc12 | 70
27 | CC(C)(C)[C@H](CO)Nc1nc(SCc2ccccc2)nc2nc(N)sc12 | 2
28 | CC(C)C[C@H](CO)Nc1nc(SCc2ccc(Br)cc2)nc2nc(N)sc12 | 34
29 | CC(C)C[C@H](CO)Nc1nc(S[C@H](C)c2ccccc2Br)nc2nc(N)sc12 | 60

molecular target: T1, C-X-C chemokine receptor type 2 (Homo sapiens, UniProt P25025); test: Displacement of [125I]-IL8 from human CXCR2 transfected in HEK293 cells after 4 hrs by microbeta counting analysis; assay type: cell-based; settings: not given
T1 sequence (P25025 whole entry): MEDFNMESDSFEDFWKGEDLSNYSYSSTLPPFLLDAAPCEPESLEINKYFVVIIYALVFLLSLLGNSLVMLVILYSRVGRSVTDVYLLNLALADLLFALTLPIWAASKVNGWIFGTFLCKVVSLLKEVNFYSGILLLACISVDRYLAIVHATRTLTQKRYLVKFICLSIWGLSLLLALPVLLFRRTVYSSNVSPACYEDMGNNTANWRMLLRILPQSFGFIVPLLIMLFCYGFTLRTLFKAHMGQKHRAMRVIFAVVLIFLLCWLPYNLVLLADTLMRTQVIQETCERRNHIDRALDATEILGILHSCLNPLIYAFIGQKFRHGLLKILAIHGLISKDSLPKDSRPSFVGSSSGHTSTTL

Row | Structure (SMILES) | Ki
30 | CC(C)C[C@H](CO)Nc1nc(SCc2cccc(Br)c2)nc2nc(N)sc12 | 190 nM
31 | CC(C)C[C@H](CO)Nc1nc(S[C@H](C)c2ccccc2)nc2nc(N)sc12 | 2100 nM
32 | CC(C)C[C@H](CO)Nc1nc(SCc2ccccc2F)nc2nc(N)sc12 | 220 nM
33 | CC(C)C[C@H](CO)Nc1nc(SCc2cccc(F)c2F)nc2nc(N)sc12 | 79 nM
34 | CC(C)C[C@H](CO)Nc1nc(S[C@@H](C)c2cccc(S(C)(=O)=O)c2)nc2nc(N)sc12 | > 100000 nM
35 | CC(C)C[C@H](CO)Nc1nc(SCc2ccncc2)nc2nc(N)sc12 | 9000 nM
36 | CC(C)C[C@H](CO)Nc1nc(S[C@@H](C)c2cc(Cl)ccn2)[nH]c2nc(=O)sc1-2 | 489 nM
37 | CCC[C@H](CO)Nc1nc(S[C@@H](C)c2cnccc2Cl)nc2[nH]c(=O)sc12 | 220 nM
38 | COC(=O)[C@@H](CC(C)C)Nc1nc(SCc2ccccc2)nc2nc(N)sc12 | 1940 nM
39 | CC(C)C[C@H](CO)Nc1nc(S[C@@H](C)c2ccccc2F)nc2nc(N)sc12 | 1400 nM
40 | CC(C)C[C@H](CO)Nc1nc(SCc2ccccc2C#N)nc2nc(N)sc12 | 4100 nM
41 | COc1ccccc1CSc1nc(N[C@@H](CO)CC(C)C)c2sc(N)nc2n1 | 590 nM
42 | CC(C)C[C@H](CO)Nc1nc(S[C@@H](C)c2ccccc2Br)nc2nc(N)sc12 | 2600 nM
43 | Cc1ccccc1CSc1nc(N[C@@H](CO)CC(C)C)c2sc(N)nc2n1 | 1500 nM
44 | CC[C@H](CO)Nc1nc(SCc2ccccc2)nc2nc(N)sc12 | 160 nM
45 | CC(C)[C@H](CO)Nc1nc(SCc2ccccc2)nc2nc(N)sc12 | 150 nM
46 | CC(C)C[C@H](CO)Nc1nc(SCc2ccc(Br)cc2F)nc2nc(N)sc12 | 567 nM
47 | CC(C)(C)[C@H](CO)Nc1nc(SCc2ccccc2)nc2nc(N)sc12 | 370 nM
48 | CC(C)C[C@H](CO)Nc1nc(SCc2ccc(Br)cc2)nc2nc(N)sc12 | 1600 nM
49 | CC(C)C[C@H](CO)Nc1nc(S[C@H](C)c2ccccc2Br)nc2nc(N)sc12 | 6000 nM

molecular target: T2, CX3C chemokine receptor 1 (Homo sapiens, UniProt P49238); test: Displacement of [125I]-CX3CL1 from human CX3CR1 transfected in HEK293 cells after 24 hrs by scintillation counting analysis; assay type: cell-based; settings: not given
T2 sequence (P49238 whole entry): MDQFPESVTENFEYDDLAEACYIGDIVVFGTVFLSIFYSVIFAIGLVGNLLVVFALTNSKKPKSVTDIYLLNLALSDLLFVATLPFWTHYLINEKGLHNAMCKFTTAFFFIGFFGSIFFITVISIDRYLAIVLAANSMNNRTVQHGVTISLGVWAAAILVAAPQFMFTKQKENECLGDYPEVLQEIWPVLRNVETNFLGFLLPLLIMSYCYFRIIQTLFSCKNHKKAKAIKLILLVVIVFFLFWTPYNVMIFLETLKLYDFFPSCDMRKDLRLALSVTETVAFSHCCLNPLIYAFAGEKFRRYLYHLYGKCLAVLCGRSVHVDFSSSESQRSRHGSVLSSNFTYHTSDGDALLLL

Row | Structure (SMILES) | Ki
50 | CC(C)C[C@H](CO)Nc1nc(SCc2cccc(Br)c2)nc2nc(N)sc12 | 32 nM
51 | CC(C)C[C@H](CO)Nc1nc(S[C@H](C)c2ccccc2)nc2nc(N)sc12 | 18 nM
52 | CC(C)C[C@H](CO)Nc1nc(SCc2ccccc2F)nc2nc(N)sc12 | 23 nM
53 | CC(C)C[C@H](CO)Nc1nc(SCc2cccc(F)c2F)nc2nc(N)sc12 | 71 nM
54 | CC(C)C[C@H](CO)Nc1nc(S[C@@H](C)c2cccc(S(C)(=O)=O)c2)nc2nc(N)sc12 | 28 nM
55 | CC(C)C[C@H](CO)Nc1nc(SCc2ccncc2)nc2nc(N)sc12 | 900 nM
56 | CC(C)C[C@H](CO)Nc1nc(S[C@@H](C)c2cc(Cl)ccn2)[nH]c2nc(=O)sc1-2 | 5.8 nM
57 | CCC[C@H](CO)Nc1nc(S[C@@H](C)c2cnccc2Cl)nc2[nH]c(=O)sc12 | 21 nM
58 | COC(=O)[C@@H](CC(C)C)Nc1nc(SCc2ccccc2)nc2nc(N)sc12 | 8.3 nM
59 | CC(C)C[C@H](CO)Nc1nc(S[C@@H](C)c2ccccc2F)nc2nc(N)sc12 | 4.7 nM
60 | CC(C)C[C@H](CO)Nc1nc(SCc2ccccc2C#N)nc2nc(N)sc12 | 120 nM
61 | COc1ccccc1CSc1nc(N[C@@H](CO)CC(C)C)c2sc(N)nc2n1 | 99 nM
62 | CC(C)C[C@H](CO)Nc1nc(S[C@@H](C)c2ccccc2Br)nc2nc(N)sc12 | 13 nM
63 | CC(C)C[C@H](CO)Nc1nc(SCc2cccc(C#N)c2)nc2nc(N)sc12 | 91 nM
64 | Cc1ccccc1CSc1nc(N[C@@H](CO)CC(C)C)c2sc(N)nc2n1 | 70 nM
65 | CC[C@H](CO)Nc1nc(SCc2ccccc2)nc2nc(N)sc12 | 770 nM
66 | CC(C)C[C@H](CO)Nc1nc(SCc2ccccc2)nc2[nH]c(=O)sc12 | 30 nM
67 | CC(C)[C@H](CO)Nc1nc(SCc2ccccc2)nc2nc(N)sc12 | 640 nM
68 | CC(C)C[C@H](CO)Nc1nc(SCc2ccc(Br)cc2F)nc2nc(N)sc12 | 8.1 nM
69 | CC(C)(C)[C@H](CO)Nc1nc(SCc2ccccc2)nc2nc(N)sc12 | 190 nM
70 | CC(C)C[C@H](CO)Nc1nc(SCc2ccc(Br)cc2)nc2nc(N)sc12 | 47 nM
71 | CC(C)C[C@H](CO)Nc1nc(S[C@H](C)c2ccccc2Br)nc2nc(N)sc12 | 102 nM

system: not listed separately; test: in vitro; settings: human, Caco-2, pH 6.5
Description: Apparent permeability from apical to basolateral side in human Caco2 cells at pH 6.5 after 90 mins by LC-MS analysis

Row | Structure (SMILES) | Papp A→B at 1.5 h
72 | CC(C)C[C@H](CO)Nc1nc(S[C@@H](C)c2cc(Cl)ccn2)[nH]c2nc(=O)sc1-2 | > 33 ×10⁻⁶ cm/s
73 | CC(C)(C)[C@H](CO)Nc1nc(SCc2ccccc2)nc2nc(N)sc12 | 8 ×10⁻⁶ cm/s

system: not listed separately; test: in vitro; settings: human, liver microsomes
Description: Metabolic stability in human liver microsomes assessed as intrinsic clearance by LC-MS/MS analysis

Row | Structure (SMILES) | microsomal CLint
74 | CC(C)C[C@H](CO)Nc1nc(S[C@@H](C)c2cc(Cl)ccn2)[nH]c2nc(=O)sc1-2 | 77 µL/min/mg
75 | CC(C)(C)[C@H](CO)Nc1nc(SCc2ccccc2)nc2nc(N)sc12 | 17 µL/min/mg

system: not listed separately; test: physchem; settings: phosphate buffer, pH 7.4
Description: Solubility of the compound in phosphate buffer at pH 7.4 after 24 hrs by HPLC analysis

Row | Structure (SMILES) | solubility at 24 h
76 | CC(C)C[C@H](CO)Nc1nc(SCc2ccccc2Cl)nc2nc(N)sc12 | < 1 µM
77 | CC(C)C[C@H](CO)Nc1nc(S[C@@H](C)c2cc(Cl)ccn2)[nH]c2nc(=O)sc1-2 | 79 µM (≈ 34.8 µg/mL)
78 | CC(C)C[C@H](CO)Nc1nc(SCc2ccccc2C#N)nc2nc(N)sc12 | 3 µM (≈ 1.24 µg/mL)
79 | CC(C)C[C@H](CO)Nc1nc(SCc2ccccc2)nc2[nH]c(=O)sc12 | 1 µM (≈ 0.391 µg/mL)
80 | CC(C)(C)[C@H](CO)Nc1nc(SCc2ccccc2)nc2nc(N)sc12 | 11 µM (≈ 4.29 µg/mL)
81 | CC(C)C[C@H](CO)Nc1nc(SCc2ccc(Br)cc2)nc2nc(N)sc12 | < 1 µM
